Experimental data as given in patent publication US12617783B2, “Heterocyclic GLP-1R agonists” (BIOMEA FUSION, INC., priority 2024, dated 2026).

The compounds below were run against T1, human GLP-1R (Homo sapiens, UniProt P43220) (assay: GLP-1R cAMP assay (Example B1a, HTRF, 30 min at room temperature)). Settings: cAMP accumulation in HEK293 expressing human GLP-1R, no BETP, 30 min room temperature (Method B1a, compounds ID 1-609), Table 1; read-out: EC50.
T1 construct: host or cells: HEK293
Type: cell-based
Method in brief: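 Competitive HTRF read-out of cAMP after 30 min room-temperature stimulation, BETP absent, of human GLP-1R-HEK293 cells (1,000/well) in HEPES buffer with 500 μM IBMX and 0.1% BSA. Activation normalised to GLP-1(7-37) positive control. EC50 from 4-parameter non-linear regression.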

T1 sequence (P43220 24-463): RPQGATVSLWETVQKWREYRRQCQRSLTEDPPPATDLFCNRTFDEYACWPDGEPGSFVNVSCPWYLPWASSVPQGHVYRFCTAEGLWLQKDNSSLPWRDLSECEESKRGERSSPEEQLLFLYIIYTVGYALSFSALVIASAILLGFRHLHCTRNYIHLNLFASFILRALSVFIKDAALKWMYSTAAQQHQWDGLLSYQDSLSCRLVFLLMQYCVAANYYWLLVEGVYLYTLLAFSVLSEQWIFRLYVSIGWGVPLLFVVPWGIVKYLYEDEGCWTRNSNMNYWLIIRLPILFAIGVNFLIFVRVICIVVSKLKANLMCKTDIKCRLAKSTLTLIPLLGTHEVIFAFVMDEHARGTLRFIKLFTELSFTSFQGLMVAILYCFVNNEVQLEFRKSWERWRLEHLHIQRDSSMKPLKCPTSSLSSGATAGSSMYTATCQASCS

First: Cc1cc(-n2nc3c(c2-n2ccn(-c4ccc5c(cnn5C)c4F)c2=O)[C@@H]2CC[C@H](C3)N2C(=O)c2cc3cc([C@@H]4CCOC5(CC5)C4)ccc3n2[C@@]2(c3noc(=O)[nH]3)C[C@@H]2C)cc(C)c1F [Compound 215, 3-((1S,2S)-1-(2-((4S,7R)-3-(3-(4-fluoro-1-methyl-1H-indazol-5-yl)-2-oxo-2,3-dihydro-1H-imidazol-1-yl)-2-(4-fluoro-3,5-dimethylphenyl)-2,4,5,6,7,8-hexahydro-4,7-epiminocyclohepta [c]pyrazole-9-carbonyl)-5-((R)-4-oxaspiro[2.5]octan-7-yl)-1H-indol-1-yl)-2-methylcyclopropyl)-1,2,4-oxadiazol-5 (4H)-one]
Second: Cc1cc(-n2nc3c(c2-n2ccn(-c4ccc5c(cnn5C)c4F)c2=O)[C@@H]2COC[C@H](C3)N2C(=O)c2cc3cc(C4CCOC5(CC5)C4)ccc3n2[C@@]2(c3noc(=O)[nH]3)C[C@@H]2C)cc(C)c1F (stereo partly drawn) [Compound 220, 3-((1S,2S)-1-(2-((4R,8S)-3-(3-(4-fluoro-1-methyl-1H-indazol-5-yl)-2-oxo-2,3-dihydro-1H-imidazol-1-yl)-2-(4-fluoro-3,5-dimethylphenyl)-2,4,5,7,8,9-hexahydro-4,8-epiminooxocino [5,4-c]pyrazole-10-carbonyl)-5-(4-oxaspiro[2.5]octan-7-yl)-1H-indol-1-yl)-2-methylcyclopropyl)-1,2,4-oxadiazol-5 (4H)-one]
The EC50 of the first is 5.2-fold higher: 4130 nM for the first, 795 nM for the second.

`CCP(=O)(CC)c1ccc(-n2ccn(-c3c4c(nn3-c3cc(C)c(F)c(C)c3)C[C@H]3CC[C@@H]4N3C(=O)c3cc4cc(C5CCOCC5)ccc4n3[C@@]3(c4noc(=O)[nH]4)C[C@@H]3C)c2=O)cc1NC` [Compound 216, 3-[(1S,2S)-1-[2-[(1S,8R)-3-[3-[4-diethylphosphoryl-3-(methylamino)phenyl]-2-oxo-imidazol-1-yl]-4-(4-fluoro-3,5-dimethyl-phenyl)-4,5,11-triazatricyclo[6.2.1.02,6]undeca-2,5-diene-11-carbonyl]-5-tetrahydropyran-4-yl-indol-1-yl]-2-methyl-cyclopropyl]-4H-1,2,4-oxadiazol-5-one] and `COc1ccc(-n2ccn(-c3c4c(nn3-c3cc(C)c(F)c(C)c3)C[C@H]3CC[C@@H]4N3C(=O)c3cc4cc([C@H]5CCOC(C)(C)C5)ccc4n3[C@@]3(c4noc(=O)[nH]4)C[C@@H]3C)c2=O)cc1` [Compound 223, 3-[(1S,2S)-1-[5-[(4S)-2,2-dimethyltetrahydropyran-4-yl]-2-[(1S,8R)-4-(4-fluoro-3,5-dimethyl-phenyl)-3-[3-(4-methoxyphenyl)-2-oxo-imidazol-1-yl]-4,5,11-triazatricyclo[6.2.1.02,6]undeca-2,5-diene-11-carbonyl]indol-1-yl]-2-methyl-cyclopropyl]-4H-1,2,4-oxadiazol-5-one] are within 1.5-fold of each other in EC50: 233 nM for the first, 259 nM for the second.

Going from `Cc1cc(-n2nc3c(c2-n2ccn(-c4ccc5c(cnn5C)c4F)c2=O)[C@@H]2CC[C@H](C3)N2C(=O)c2cc3nc([C@H]4CCOC(C)(C)C4)ccc3n2[C@@]2(c3noc(=O)[nH]3)C[C@@H]2C)cc(C)c1F` [Compound 217, 3-[(1S,2S)-1-[5-[(4S)-2,2-dimethyltetrahydropyran-4-yl]-2-[(1S,8R)-4-(4-fluoro-3,5-dimethyl-phenyl)-3-[3-(4-fluoro-1-methyl-indazol-5-yl)-2-oxo-imidazol-1-yl]-4,5,11-triazatricyclo[6.2.1.02,6]undeca-2,5-diene-11-carbonyl]pyrrolo[3,2-b]pyridin-1-yl]-2-methyl-cyclopropyl]-4H-1,2,4-oxadiazol-5-one] to `Cc1cc(-n2nc3c(c2-n2ccn(-c4ccc5c(cnn5C)c4F)c2=O)[C@@H]2CC[C@H](C3)N2C(=O)c2cc3nc([C@@H]4CCOC(C)(C)C4)ccc3n2[C@@]2(c3noc(=O)[nH]3)C[C@@H]2C)cc(C)c1F` [Compound 218, 3-[(1S,2S)-1-[5-[(4R)-2,2-dimethyltetrahydropyran-4-yl]-2-[(1S,8R)-4-(4-fluoro-3,5-dimethyl-phenyl)-3-[3-(4-fluoro-1-methyl-indazol-5-yl)-2-oxo-imidazol-1-yl]-4,5,11-triazatricyclo[6.2.1.02,6]undeca-2,5-diene-11-carbonyl]pyrrolo[3,2-b]pyridin-1-yl]-2-methyl-cyclopropyl]-4H-1,2,4-oxadiazol-5-one], the EC50 rises from 907 nM to greater than 10000 nM.

First: CCc1nccc(-c2ccc3c(c2)cc(C(=O)N2[C@@H]4CC[C@H]2c2c(nn(-c5cc(C)c(F)c(C)c5)c2-n2ccn(-c5ccc6c(cnn6C)c5F)c2=O)C4)n3[C@@]2(c3noc(=O)[nH]3)C[C@@H]2C)c1C [Compound 219, 3-[(1S,2S)-1-[5-(2-ethyl-3-methyl-4-pyridyl)-2-[(1S,8R)-4-(4-fluoro-3,5-dimethyl-phenyl)-3-[3-(4-fluoro-1-methyl-indazol-5-yl)-2-oxo-imidazol-1-yl]-4,5,11-triazatricyclo[6.2.1.02,6]undeca-2,5-diene-11-carbonyl]indol-1-yl]-2-methyl-cyclopropyl]-4H-1,2,4-oxadiazol-5-one]
Second: Cc1cc(-n2nc3c(c2-n2ccn(-c4ccc5c(cnn5C)c4F)c2=O)[C@@H]2COC[C@H](C3)N2C(=O)c2cc3cc(C4CCOCC4)ccc3n2[C@@]2(c3noc(=O)[nH]3)C[C@@H]2C)cc(C)c1F [Compound 221, 3-((1S,2S)-1-(2-((4R,8S)-3-(3-(4-fluoro-1-methyl-1H-indazol-5-yl)-2-oxo-2,3-dihydro-1H-imidazol-1-yl)-2-(4-fluoro-3,5-dimethylphenyl)-2,4,5,7,8,9-hexahydro-4,8-epiminooxocino [5,4-c]pyrazole-10-carbonyl)-5-(tetrahydro-2H-pyran-4-yl)-1H-indol-1-yl)-2-methylcyclopropyl)-1,2,4-oxadiazol-5 (4H)-one]
The EC50 of the first is 2.1-fold higher: 269 nM for the first, 129 nM for the second.

First: Cc1cc(-n2nc3c(c2-n2ccn(-c4ccc5c(cnn5C)c4Cl)c2=O)[C@@H]2COC[C@H](C3)N2C(=O)c2cc3cc([C@H]4CCOC(C)(C)C4)ccc3n2[C@@]2(c3noc(=O)[nH]3)C[C@@H]2C)cc(C)c1F [Compound 222, 3-((1S,2S)-1-(2-((4R,8S)-3-(3-(4-chloro-1-methyl-1H-indazol-5-yl)-2-oxo-2,3-dihydro-1H-imidazol-1-yl)-2-(4-fluoro-3,5-dimethylphenyl)-2,4,5,7,8,9-hexahydro-4,8-epiminooxocino [5,4-c]pyrazole-10-carbonyl)-5-((S)-2,2-dimethyltetrahydro-2H-pyran-4-yl)-1H-indol-1-yl)-2-methylcyclopropyl)-1,2,4-oxadiazol-5(4H)-one]
Second: Cc1cc(-n2nc3c(c2-n2ccn(-c4ccc5c(cnn5C)c4C)c2=O)[C@@H]2COC[C@H](C3)N2C(=O)c2cc3cc([C@H]4CCOC(C)(C)C4)ccc3n2[C@@]2(c3noc(=O)[nH]3)C[C@@H]2C)cc(C)c1F [Compound 228, 3-[(1S,2S)-1-[2-[(1R,8S)-3-[3-(1,4-dimethylindazol-5-yl)-2-oxo-imidazol-1-yl]-4-(4-fluoro-3,5-dimethyl-phenyl)-10-oxa-4,5,12-triazatricyclo[6.3.1.02,6]dodeca-2,5-diene-12-carbonyl]-5-[(4S)-2,2-dimethyltetrahydropyran-4-yl]indol-1-yl]-2-methyl-cyclopropyl]-4H-1,2,4-oxadiazol-5-one]
The EC50 of the first is 2.3-fold lower: 177 nM for the first, 402 nM for the second.

Going from `Cc1cc(-n2nc3c(c2-n2ccn(-c4cc(F)c5c(cnn5C)c4F)c2=O)[C@@H]2COC[C@H](C3)N2C(=O)c2cc3cc([C@H]4CCOC(C)(C)C4)ccc3n2[C@@]2(c3noc(=O)[nH]3)C[C@@H]2C)cc(C)c1F` [Compound 224, 3-[(1S,2S)-1-[2-[(1R,8S)-3-[3-(4,7-difluoro-1-methyl-indazol-5-yl)-2-oxo-imidazol-1-yl]-4-(4-fluoro-3,5-dimethyl-phenyl)-10-oxa-4,5,12-triazatricyclo[6.3.1.02,6]dodeca-2,5-diene-12-carbonyl]-5-[(4S)-2,2-dimethyltetrahydropyran-4-yl]indol-1-yl]-2-methyl-cyclopropyl]-4H-1,2,4-oxadiazol-5-one] to `Cc1cc(-n2nc3c(c2-n2ccn(-c4ccc5c(cnn5C)c4F)c2=O)[C@@H]2COC[C@H](C3)N2C(=O)c2cc3cc([C@H]4CCOC(C)(C)C4)ncc3n2[C@@]2(c3noc(=O)[nH]3)C[C@@H]2C)cc(C)c1F` [Compound 225, 3-((1S,2S)-1-(5-((S)-2,2-dimethyltetrahydro-2H-pyran-4-yl)-2-((4R,8S)-3-(3-(4-fluoro-1-methyl-1H-indazol-5-yl)-2-oxo-2,3-dihydro-1H-imidazol-1-yl)-2-(4-fluoro-3,5-dimethylphenyl)-2,4,5,7,8,9-hexahydro-4,8-epiminooxocino [5,4-c]pyrazole-10-carbonyl)-1H-pyrrolo[2,3-c]pyridin-1-yl)-2-methylcyclopropyl)-1,2,4-oxadiazol-5 (4H)-one], the EC50 falls from 212 nM to 34.1 nM (6.2-fold).

`Cc1cc(-n2nc3c(c2-n2ccn(-c4ccc5c(cnn5C)c4F)c2=O)[C@@H]2COC[C@H](C3)N2C(=O)c2cc3cc([C@H]4CCOC5(CC5)C4)ccc3n2[C@@]2(c3noc(=O)[nH]3)C[C@@H]2C)cc(C)c1F` [Compound 226, 3-((1S,2S)-1-(2-((4R,8S)-3-(3-(4-fluoro-1-methyl-1H-indazol-5-yl)-2-oxo-2,3-dihydro-1H-imidazol-1-yl)-2-(4-fluoro-3,5-dimethylphenyl)-2,4,5,7,8,9-hexahydro-4,8-epiminooxocino [5,4-c]pyrazole-10-carbonyl)-5-((S)-4-oxaspiro[2.5]octan-7-yl)-1H-indol-1-yl)-2-methylcyclopropyl)-1,2,4-oxadiazol-5 (4H)-one] and `Cc1cc(-n2nc3c(c2-n2ccn(-c4ccc5c(cnn5C)c4F)c2=O)[C@@H]2COC[C@H](C3)N2C(=O)c2cc3cc([C@@H]4CCOC5(CC5)C4)ccc3n2[C@@]2(c3noc(=O)[nH]3)C[C@@H]2C)cc(C)c1F` [Compound 227, 3-((1S,2S)-1-(2-((4R,8S)-3-(3-(4-fluoro-1-methyl-1H-indazol-5-yl)-2-oxo-2,3-dihydro-1H-imidazol-1-yl)-2-(4-fluoro-3,5-dimethylphenyl)-2,4,5,7,8,9-hexahydro-4,8-epiminooxocino [5,4-c]pyrazole-10-carbonyl)-5-((R)-4-oxaspiro[2.5]octan-7-yl)-1H-indol-1-yl)-2-methylcyclopropyl)-1,2,4-oxadiazol-5 (4H)-one] are within 1.5-fold of each other in EC50: 435 nM for the first, 585 nM for the second.
